Consider eight molecules from patent US4956363A, “Treatment of cognitive and behavioral disorders associated with aging and with dementia syndromes” (U C B S.A., priority 1988, dated 1990).

“Also recorded” adds a separate entry of the source.

In data set [1] the test system is learning of the avoidance reflex. Description: Multiple-trial passive avoidance: learning. Particulars: i.p. at the dose (mg/kg) of the line in Table V, 30 min before test; criterion 180 seconds on the mat. In kind it is in vivo, rats (male Sprague-Dawley). The protocol: To evaluate whether a compound can promote learning, the following test is carried out.
This experiment is repeated until the animal remains on the rubber mat for at least 180 seconds in order to avoid the electric shock. The learning is expressed by the average number of trials needed to reach a period of 180 seconds remaining on the mat.
A period of remaining on the rubber mat of 180 seconds is regarded as being the maximum performance which can be realized by the animal to avoid the electric shock. Rats which remain on the mat for this period have acquired the avoidance reflex and are replaced in their original cage without receiving the electric shock.
group 1 receives an intraperitoneal injection of physiological salt solution:
group 2 receives an intraperitoneal injection of the compound to be tested:
Columns 3 and 4 show the results obtained in the test used to evaluate the learning. The figures indicate the average number of trials needed for a control animal (group 1) or an animal treated (group 2) with the compound to learn to remain on the rubber mat for 180 seconds in order to avoid the electric shock. The results were analyzed by the Student test.

In data set [2] the test system is amnesia induced by scopolamine. Description: Multiple-trial passive avoidance: mnemic retention (amnesia induced by scopolamine). The following applies: for Period of remaining on the mat, group 4, 4 hours / Period of remaining on the mat, group 4, 24 hours / Period of remaining on the mat, group 4, 28 hours: compound i.p. at the dose of the line + scopolamine 0.5 mg i.p. The protocol:
To this end, the method of multiple-trial passive avoidance has been used. This method is well-known for evaluating the effects which a product exerts on the memory and learning (A. FINE et al., Proc. Natl. Acad. Sci. U.S.A., 82, (1985), 5227-5230).
The test is carried out on male Sprague-Dawley rats (160-200 g). which are kept in standard cages throughout the experiment.
The apparatus used is a transparent square cage with 35 cm sides and 25 cm high, fitted with a grid floor which can be electrified. An insulating rubber mat (10×17 cm) is placed on the floor in one of the corners of the cage.
Each animal is subjected to four tests at times 0, 4, 24 and 28 hours. In the first test (time 0), the animal is placed on the rubber mat and the time which it takes to decide to leave this position to explore the cage is recorded. After 20 seconds of exploration, the rat receives an electric shock (3 seconds duration) in the paws, causing a flight reaction. The rat is immediately removed from the apparatus and replaced in its original cage. In the course of the three subsequent tests (times: 4, 24 and 28 hours), the animal is replaced on the rubber mat and the time taken to leave this position is recorded. When the four paws of the animal rest on the grid, it receives an electric shock and is immediately removed from the apparatus.
At the start of the experiment, the rats are divided into 4 homogeneous groups of 15 animals. Thirty minutes before each test, each group of animals is subjected to a predetermined treatment:
Groups 1 and 2 are used in the first experiment and groups 3 and 4 are used in the second experiment.
The differences observed are analyzed statistically by the Mann-Whitney method.

Another data set concerns male NMRI mice. Description: Toxicity, Irwin's test. In kind it is in vivo. Particulars: mice, i.p.; death of two animals out of three within 48 hours. The method, then:
Progressive doses of the compound to be tested are administered intraperitoneally to groups of three mice until the lethal dose is reached (dose which causes the death of two animals out of three within 48 hours).

The subject of data set [3] is effects of scopolamine on the EEG, band from 6.4 to 9.6 Hz. Nature of the data set: Inhibition of the effects of scopolamine on the electroencephalogram (EEG). The format is in vivo, rats (male albino Sprague-Dawley SPF). The following applies: for Inhibition of the effects of scopolamine on the band from 6.4 to 9.6 Hz in the EEG: rats, i.p. at the dose (mg/kg) of the line in Table IV, scopolamine 0.5 mg/kg i.p. The method, then:
Male albino Sprague-Dawley SPF rats (160 to 200 g) are used in this test.
When the animals are 3 months old, 5 cortical electrodes are implanted permanently, aseptically and under a general anesthesia: one inert electrode, one left and one right frontal electrode, and one left and one right occipital electrode (P. ETEVENON, loc. cit.).
The test is carried out when the animals are about 15 months old. In the meantime, the animals are kept in individual cages. They are given water and food ad libitum and are subjected to a regular daily cycle comprising a period of darkness between 6 o'clock in the evening and 6 o'clock in the morning. At the same time, the animals are progressively acclimatized to the cages of the sound-proof cabin which they will subsequently occupy for recording of the electroencephalograms, as well as to the experimental conditions, by intraperitoneal administration of placebo. The products are administered immediately before the EEG is recorded.
The rats are divided into groups of 8 animals and 16 samples of the EEG spectra are recorded over 5 seconds (two EEG spectra per animal). The spectra obtained are then analyzed by computer (rapid Fourier transform), which enables the average of the 16 measurements performed to be determined for each group and the overall intensity of the EEG spectrum and the distribution of this intensity (in %) in the various frequency bands to be deduced for each animal.
This operation (recording of the spectra) is repeated 9 times (total duration: 121 minutes).

The test system of data set [4] is salivatory effect of oxotremorine (peripheral cholinergic activation). Nature of the data set: Potentiation of the peripheral cholinergic (salivatory) effect of oxotremorine. In kind it is in vivo, mice (male NMRI). Particulars: 20 minutes after administration at the minimum active dose; in words. The protocol: The degree of peripheral cholinergic activation is measured by the salivatory effect quantified by the following rating system:
score 1: a little saliva is found around the teeth;
score 2: the saliva forms a narrow band around the mouth;
score 4: the saliva wets a surface underneath the chin;
score 6: the saliva runs from the mouth, for example onto the forelegs.
The intermediate scores are not used, and the saliva is wiped away after each observation.
(§1) Male NMRI mice (20 to 25 g) are divided into four groups of five animals, that is to say: one control group and three treated groups.
The compound to be tested is administered intraperitoneally (to the three treated groups) 20 minutes before the administration of the oxotremorine, at a dose which differs for each of the treated groups. […]
(§2) For each of the groups, the individual scores recorded at each observation period are summed: this enables to plot a curve showing the sum of the scores as a function of time, which is characteristic for each group.
(§3) The mean values of the areas under the curves obtained for each of the treated groups are compared with the mean value of the area under the curve corresponding to the control group and is subjected to statistical analysis by the Mann-Whitney method. From this comparison, "a minimum active dose" can be determined. […]

Data set [5] deals with tremogenic effect of oxotremorine (central cholinergic activation). Nature of the data set: Potentiation of the central cholinergic (tremogenic) effect of oxotremorine. In kind it is in vivo, mice (male NMRI). The protocol:
The degree of central cholinergic activation is measured by the tremogenic effect quantified by the following rating system:
score 1: slight and periodic occasional tremors;
score 2: moderate and slight tremors often repeated;
score 4: accentuated tremors, but interrupted by periods of calm;
score 6: very accentuated and almost continuous tremors.
as §1
The compound to be tested is administered intraperitoneally (to the three treated groups) 20 minutes before the administration of the oxotremorine, at a dose which differs for each of the treated groups.
The oxotremorine is administered intraperitoneally to the treated groups and to the control group at a dose of 0.05 mg/kg dissolved in 10 ml/kg of physiological salt solution. […]
as §2, §3

Data set [6] deals with hyperactivity induced by scopolamine. Description: Inhibition of hyperactivity induced by scopolamine. In kind it is in vivo, rats (male Sprague-Dawley SPF). Particulars: administered more than 15 minutes before the measurements; in words.
The test system is the same in data set [7]. The following applies: rats placed in a new environment; in words, literature; cited from earlier work.
Another data set deals with memory. The following applies: in words, literature; cited from earlier work.

On to `CCCc1nc(NCCOC)nc(N2CCOCC2)n1` [Compound 10, 2-[(2-methoxyethyl)amino]-4-morpholino-6-propyl-1,3,5-triazine], for which, in data set [1], the “Learning, average number of trials (group 2)” value (shortened to “Learning, average number”) was determined as 2.07. Besides, in [2], the “Period of remaining on the mat, group 4, 4 hours” value was found to be 15.7 s; the “Period of remaining on the mat, group 4, 24 hours” value is 31.1 s; the “Period of remaining on the mat, group 4, 28 hours” value was 34.1 s. In the data set on male NMRI mice, this molecule returned a Lethal dose of 844 mg/kg.
The corresponding values for `CCCc1nc(NC(=O)N(C)C)nc(N2CCOCC2)n1` [Compound 41, N,N-Dimethyl-N'-(4-morpholino-6-propyl-1,3,5-triazin-2-yl)-urea] are 1.33, 15.8 s, 27.3 s, 66.3 s and 294 mg/kg.
As for `CCCc1nc(N)nc(N2CCOCC2)n1` [Compound 44, 2-Amino-4-morpholino-6-propyl-1,3,5-triazine], the “Inhibition of the effects of scopolamine on the band from 6.4 to 9.6 Hz in the EEG” value in data set [3] stood at 100%. The “Learning, average number” value in data set [1] is given as 1.13. The Lethal dose with male NMRI mice came out at 779 mg/kg.
The corresponding values for `CCCc1nc(NC)nc(N2CCOCC2)n1` [Compound 45, 2-(Methylamino)-4-morpholino-6-propyl-1,3,5-triazine] are 91.7%, 2.00 and 821 mg/kg.
As to `COC(=O)C1=CCCN(C)C1` [arecoline, methyl 1,2,5,6-tetrahydro-1-methyl-3-pyridinecarboxylate], in [4], the “potentiation of the salivatory effect of oxotremorine” value was “no potentiation”. Further, the “potentiation of the tremogenic effect of oxotremorine” value in [5] (20 minutes after administration at the minimum active dose, in words) was “no potentiation”.
With `O=C1CCCN1CC#CCN1CCCC1` [oxotremorine], the minimal effective dose in data set [5] (Mus musculus, ip, mice, i.p., approximate, read-out: minimum dose of oxotremorine which causes tremors and salivation) is approximately 0.05 mg/kg.
For `CNC(=O)Oc1ccc2c(c1)[C@]1(C)CCN(C)[C@@H]1N2C` [physostigmine, reference compound], in data set [6], the “activity of physostigmine on the hyperactivity induced by scopolamine” value was “inactive”. Moreover, in data set [3], the “Inhibition of the effects of scopolamine on the band from 6.4 to 9.6 Hz in the EEG” value was 76.8%. Further, the “effect on the EEG spectrum” value in data set [3] (scopolamine 0.5 mg/kg i.p. in rats, in words) is “counteracts these variations”. The “Learning, average number” value in [1] is 2.30. In data set [2], the “Period of remaining on the mat, group 4, 4 hours” value is 17.8 s; the “Period of remaining on the mat, group 4, 24 hours” value is 56.2 s; the “Period of remaining on the mat, group 4, 28 hours” value stood at 53.4 s. The “relation of active dose to side effects / toxic dose” value in data set [2] (dose active against the amnesing effect of scopolamine, in words) was “obtained at a dose which has side effects and is very close to the toxic dose”. In [2] (in words), the “effect against the amnesing effect of scopolamine” value is listed as “favorable action against the amnesing effect of scopolamine”. The “effect on exploratory activity” value in [7] is “counteracts the hyperactivity induced by scopolamine”. The effect on memory result with memory is reported as “an improvement in anemic disorders; also recorded: capable of combating the amnesia resulting from the administration of anticholinergic agents”.
For `CN1[C@@H]2C[C@@H](OC(=O)[C@H](CO)c3ccccc3)C[C@H]1[C@@H]1O[C@@H]12` [scopolamine], in data set [7], the “effect on exploratory activity” value is “induces exploratory hyperactivity”. The effect on memory entry in the data set with memory was “gives rise to memory deficiencies similar to those observed in elderly subjects”.
